Measured values: patent US20110162097A1, “NUCLEOTIDE SEQUENCE ENCODING AN ALCOHOL DEHYDROGENASE FROM ARTEMISIA ANNUA AND USES THEREOF” (priority 2008, published 2011)

Key:
[1] = tested on: Plasmodium falciparum; details: reported to be more active than artesunate; cited from earlier work
[2] = molecular target: T1, ADH1 (Artemisia annua alcohol dehydrogenase) (Artemisia annua, UniProt A0A2U1Q018, G20S/L19S/V78I); test: Specific ADH1 activity enzyme assay (crude protein from E. coli, NAD+, GC/MS analysis); type: biochemical; details: 1 mM NAD+, 0.1 μg/μl substrate, approximately 90 μg crude protein, 30° C., 30 minutes
T1 construct: 6xHis (N-terminal tag and attB linker encoded by pDEST17); made in house; host or cells: E. coli Rosetta (DE3)
Description: The Gateway vector pDEST17 had the Adh1 gene inserted and was subsequently transformed into a competent expression E. coli strain Rosetta (DE3). These cells were grown overnight in 3 ml of LB broth amended with 100 μg/ml ampicillin. An aliquot of 1 ml overnight culture was sub cultured to 100 ml of fresh LB broth also amended with 100 μg/ml of ampicillin. The culture was incubated at 37° C. until the optical density reached 0.8 at 600 nm. A final concentration of 1 mM IPTG was then added to the culture and the flask was incubated at 30° C. for another 4 hours. Cells were harvested by centrifugation at 10,000 rcf for 10 minutes. Pelleted cells were resuspended in 20 mM sodium phosphate pH 7.4 and 500 mM NaCl. Cell walls were disrupted by sonication on ice at intervals of 0.7 seconds for 1 minute, followed by a 1 minute cool down this was repeated three times. The sonicated cells were centrifuged at 10,000 rcf for 10 minutes; the supernatant which contained the soluble ADH1 was concentrated and desalted by spin dialysis (using Amicon Ultra-15 devices; Millipore, Mass.), and stored in a new tube at 4° C. This method of recombination and expression was also used for a control plasmid pDEST17-gus.
Enzyme assay was prepared to determine the specific activity of ADH1. […]

T1 sequence (A0A2U1Q018 whole entry L19S/G20S/V78I): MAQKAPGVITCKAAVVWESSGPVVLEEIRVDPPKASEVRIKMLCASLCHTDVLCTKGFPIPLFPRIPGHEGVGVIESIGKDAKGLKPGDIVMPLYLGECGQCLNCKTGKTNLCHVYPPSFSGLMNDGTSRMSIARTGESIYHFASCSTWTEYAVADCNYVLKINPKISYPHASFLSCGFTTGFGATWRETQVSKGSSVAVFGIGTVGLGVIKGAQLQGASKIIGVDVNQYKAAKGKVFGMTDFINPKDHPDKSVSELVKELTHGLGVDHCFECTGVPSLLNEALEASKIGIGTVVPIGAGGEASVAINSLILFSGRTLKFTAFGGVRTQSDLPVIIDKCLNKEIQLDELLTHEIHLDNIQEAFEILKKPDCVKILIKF

Row | SMILES | activity relative to artesunate [1] | oxidation of substrate by ADH1 (product observed by GC/MS) [2]
1 | C[C@H]1[C@H](N2CCS(=O)(=O)CC2)O[C@@H]2O[C@@]3(C)CC[C@H]4[C@H](C)CC[C@@H]1[C@@]24OO3 [Artemisone] | 10-30 fold | 
2 | C=C(CO)[C@@H]1CC[C@@H](C)[C@@H]2CCC(C)=C[C@@H]21 [artemisinic alcohol] |  | presence of product artemisinic aldehyde
3 | CC1=C[C@H]2[C@@H](CC1)[C@H](C)CC[C@H]2[C@@H](C)CO [dihydroartemisinic alcohol, (11R)-dihydroartemisinic alcohol] |  | no observed product
